Experimental data taken from the supplement of paper PMC11451515.

System: NOMO1
Test: cell viability relative to DMSO control; higher = less cytotoxic
Settings: 48 h
Summary of the method: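 Viability values are per-plate percentages of DMSO wells, with background from cell-free wells. Library compounds in DMSO were pin-dosed, in an 11-point threefold series from 47 μM to 0.79 nM, onto NOMO1 or SEM (500 cells/well) or P12-Ichikawa (1000 cells/well) leukemia cells in 1536-well plates (5 μl). Those cells had been adapted for at least four passages in each medium, and CellTiter-Glo One luminescence was read after 48 h at 37°C.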

[1] = RPMI 5 mM glucose + 10% FBS, 0.000781 µM
[2] = RPMI 5 mM glucose + 10% FBS, 0.00234 µM
[3] = RPMI 5 mM glucose + 10% FBS, 0.00702 µM
[4] = RPMI 5 mM glucose + 10% FBS, 0.0211 µM
[5] = RPMI 5 mM glucose + 10% FBS, 0.0632 µM
[6] = RPMI 5 mM glucose + 10% FBS, 0.19 µM
[7] = RPMI 5 mM glucose + 10% FBS, 0.569 µM
[8] = RPMI 5 mM glucose + 10% FBS, 1.71 µM
[9] = RPMI 5 mM glucose + 10% FBS, 5.12 µM
[10] = RPMI 5 mM glucose + 10% FBS, 15.4 µM
[11] = RPMI 5 mM glucose + 10% FBS, 46.1 µM
[12] = HPLM + 10% dialyzed FBS, 0.000781 µM
[13] = HPLM + 10% dialyzed FBS, 0.00234 µM
[14] = HPLM + 10% dialyzed FBS, 0.00702 µM
[15] = HPLM + 10% dialyzed FBS, 0.0211 µM
[16] = HPLM + 10% dialyzed FBS, 0.0632 µM
[17] = HPLM + 10% dialyzed FBS, 0.19 µM
[18] = HPLM + 10% dialyzed FBS, 0.569 µM
[19] = HPLM + 10% dialyzed FBS, 1.71 µM
[20] = HPLM + 10% dialyzed FBS, 5.12 µM
[21] = HPLM + 10% dialyzed FBS, 15.4 µM
[22] = HPLM + 10% dialyzed FBS, 46.1 µM
[23] = RPMI 5 mM glucose + 10% dialyzed FBS, 0.000781 µM
[24] = RPMI 5 mM glucose + 10% dialyzed FBS, 0.00234 µM
[25] = RPMI 5 mM glucose + 10% dialyzed FBS, 0.00702 µM
[26] = RPMI 5 mM glucose + 10% dialyzed FBS, 0.0211 µM
[27] = RPMI 5 mM glucose + 10% dialyzed FBS, 0.0632 µM
[28] = RPMI 5 mM glucose + 10% dialyzed FBS, 0.19 µM
[29] = RPMI 5 mM glucose + 10% dialyzed FBS, 0.569 µM
[30] = RPMI 5 mM glucose + 10% dialyzed FBS, 1.71 µM
[31] = RPMI 5 mM glucose + 10% dialyzed FBS, 5.12 µM
[32] = RPMI 5 mM glucose + 10% dialyzed FBS, 15.4 µM
[33] = RPMI 5 mM glucose + 10% dialyzed FBS, 46.1 µM

`CC(C)c1ccc2oc3nc(N)c(C(=O)O)cc3c(=O)c2c1` was tested, and the cell viability [1] was 121%, the cell viability [2] was 121% and the cell viability [3] was 128%. For the same compound, the cell viability [4] was 137%, the cell viability [5] was 136% and the cell viability [6] was 128%. For the same compound, the cell viability [7] was 123%, the cell viability [8] was 134% and the cell viability [9] was 133%. It also gave a cell viability [10] of 130% and a cell viability [11] of 122%.
`CCOC(=O)c1ncn2c1CN(C)C(=O)c1cc(F)ccc1-2` gave a cell viability [12] of 131%, a cell viability [13] of 124% and a cell viability [14] of 124%. It also gave a cell viability [15] of 117%, a cell viability [16] of 123% and a cell viability [17] of 120%. For the same compound, the cell viability [18] was 109%, the cell viability [19] was 110% and the cell viability [20] was 108%. It also gave a cell viability [21] of 90%, a cell viability [22] of 73.6% and a cell viability [1] of 116%. The cell viability [2] was 130%, the cell viability [3] was 118% and the cell viability [4] was 111%. It also gave a cell viability [5] of 99.6%, a cell viability [6] of 104% and a cell viability [7] of 106%. It also gave a cell viability [8] of 120%, a cell viability [9] of 120% and a cell viability [10] of 108%. It also gave a cell viability [11] of 76.8%, a cell viability [23] of 122% and a cell viability [24] of 109%. For the same compound, the cell viability [25] was 110%, the cell viability [26] was 124% and the cell viability [27] was 113%. For the same compound, the cell viability [28] was 107%, the cell viability [29] was 128% and the cell viability [30] was 95.7%. For the same compound, the cell viability [31] was 116%, the cell viability [32] was 103% and the cell viability [33] was 78.8%.
In the case of `C[Se]CCC(N)C(=O)O` (stereo unspecified), the cell viability [12] is reported as 90.1%, the cell viability [13] is reported as 90.2% and the cell viability [14] is reported as 85.7%. It also gave a cell viability [15] of 95.7%, a cell viability [16] of 99.3% and a cell viability [17] of 93%. For the same compound, the cell viability [18] was 93.1%, the cell viability [19] was 59.1% and the cell viability [20] was 83.5%. It also gave a cell viability [21] of 69%, a cell viability [22] of 73.7% and a cell viability [1] of 79.9%. For the same compound, the cell viability [2] was 83.5%, the cell viability [3] was 97.2% and the cell viability [4] was 84.4%. The cell viability [5] was 88.5%, the cell viability [6] was 83.3% and the cell viability [7] was 89.3%. The cell viability [8] was 86.7%, the cell viability [9] was 79.4% and the cell viability [10] was 84%. For the same compound, the cell viability [11] was 79%, the cell viability [23] was 77.2% and the cell viability [24] was 87.3%. For the same compound, the cell viability [25] was 85.4%, the cell viability [26] was 81.9% and the cell viability [27] was 91.1%. The cell viability [28] was 89.1%, the cell viability [29] was 73.1% and the cell viability [30] was 77%. For the same compound, the cell viability [31] was 95.7%, the cell viability [32] was 74.2% and the cell viability [33] was 76.2%.
For `O=C(C1CCCCC1)N1CC(=O)N2CCc3ccccc3C2C1` (stereo unspecified), the cell viability [12] was 106%, the cell viability [13] was 147% and the cell viability [14] was 125%. It also gave a cell viability [15] of 125%, a cell viability [16] of 126% and a cell viability [17] of 130%. For the same compound, the cell viability [18] was 140%, the cell viability [19] was 110% and the cell viability [20] was 108%. It also gave a cell viability [21] of 107% and a cell viability [22] of 114%.
`COc1ccc2cccc(CCNC(C)=O)c2c1` gave a cell viability [12] of 111%, a cell viability [13] of 114% and a cell viability [14] of 95.7%. It also gave a cell viability [15] of 123%, a cell viability [16] of 104% and a cell viability [17] of 87.9%. For the same compound, the cell viability [18] was 122%, the cell viability [19] was 104% and the cell viability [20] was 101%. For the same compound, the cell viability [21] was 89.7%, the cell viability [22] was 85% and the cell viability [1] was 90.8%. It also gave a cell viability [2] of 91.6%, a cell viability [3] of 86.5% and a cell viability [4] of 92.9%. For the same compound, the cell viability [5] was 84.7%, the cell viability [6] was 84.6% and the cell viability [7] was 85.6%. The cell viability [8] was 94.7%, the cell viability [9] was 83.1% and the cell viability [10] was 83.2%. The cell viability [11] was 80.1%, the cell viability [23] was 94.7% and the cell viability [24] was 96.6%. It also gave a cell viability [25] of 105%, a cell viability [26] of 82.5% and a cell viability [27] of 91.3%. It also gave a cell viability [28] of 97.4%, a cell viability [29] of 97.2% and a cell viability [30] of 90.2%. For the same compound, the cell viability [31] was 86%, the cell viability [32] was 93.7% and the cell viability [33] was 79.6%.
With `OC1=C(C=CC=C1)C2=CC=C(C=C2)C3=CSC4=C3C(=C(/C#N)C(=O)N4)/O` the cell viability [12] was 119%, the cell viability [13] was 119% and the cell viability [14] was 120%. For the same compound, the cell viability [15] was 102%, the cell viability [16] was 112% and the cell viability [17] was 110%. It also gave a cell viability [18] of 119%, a cell viability [19] of 118% and a cell viability [20] of 126%. For the same compound, the cell viability [21] was 105%, the cell viability [22] was 102% and the cell viability [23] was 117%. It also gave a cell viability [24] of 123%, a cell viability [25] of 131% and a cell viability [26] of 139%. It also gave a cell viability [27] of 122%, a cell viability [28] of 112% and a cell viability [29] of 122%. It also gave a cell viability [30] of 119%, a cell viability [31] of 114% and a cell viability [32] of 123%. It also gave a cell viability [33] of 109%.
With `COC1=CC=C(C=C1)C/2=C/OC3=CC(=CC=C3C2=O)O` the cell viability [12] was 108%, the cell viability [13] was 125% and the cell viability [14] was 114%. The cell viability [15] was 119%, the cell viability [16] was 116% and the cell viability [17] was 119%. It also gave a cell viability [18] of 119%, a cell viability [19] of 109% and a cell viability [20] of 83.1%. For the same compound, the cell viability [21] was 67.9%, the cell viability [22] was 43.1% and the cell viability [1] was 123%. It also gave a cell viability [2] of 111%, a cell viability [3] of 121% and a cell viability [4] of 115%. The cell viability [5] was 132%, the cell viability [6] was 114% and the cell viability [7] was 106%. For the same compound, the cell viability [8] was 118%, the cell viability [9] was 102% and the cell viability [10] was 101%. It also gave a cell viability [11] of 71.1%, a cell viability [23] of 122% and a cell viability [24] of 120%. For the same compound, the cell viability [25] was 113%, the cell viability [26] was 106% and the cell viability [27] was 133%. For the same compound, the cell viability [28] was 121%, the cell viability [29] was 101% and the cell viability [30] was 105%. It also gave a cell viability [31] of 111%, a cell viability [32] of 104% and a cell viability [33] of 98.4%.
`O=P(O)(O)C(O)(Cc1cccnc1)P(=O)(O)[O][Na]` (stereo unspecified) gave a cell viability [12] of 71.5%, a cell viability [13] of 102% and a cell viability [14] of 98.3%. The cell viability [15] was 33%, the cell viability [16] was 107% and the cell viability [17] was 97.2%. It also gave a cell viability [18] of 119%, a cell viability [19] of 116% and a cell viability [20] of 116%. It also gave a cell viability [21] of 102%, a cell viability [22] of 106% and a cell viability [1] of 85.3%. The cell viability [2] was 93.6%, the cell viability [3] was 90.8% and the cell viability [4] was 22.8%. The cell viability [5] was 90.7%, the cell viability [6] was 85% and the cell viability [7] was 93%. The cell viability [8] was 84.7%, the cell viability [9] was 83.7% and the cell viability [10] was 85.9%. The cell viability [11] was 86.6%, the cell viability [23] was 76.4% and the cell viability [24] was 80.2%. The cell viability [25] was 82.8%, the cell viability [26] was 25.2% and the cell viability [27] was 88.2%. For the same compound, the cell viability [28] was 93.5%, the cell viability [29] was 103% and the cell viability [30] was 92.6%. It also gave a cell viability [31] of 97.6%, a cell viability [32] of 93.6% and a cell viability [33] of 106%.
In the case of `O=C(c1ccc(F)cc1)C1CCN(CCn2c(=O)[nH]c3ccccc3c2=O)CC1`, the cell viability [12] is reported as 122%, the cell viability [13] is reported as 117% and the cell viability [14] is reported as 111%. For the same compound, the cell viability [15] was 128%, the cell viability [16] was 136% and the cell viability [17] was 114%. It also gave a cell viability [18] of 127%, a cell viability [19] of 120% and a cell viability [20] of 143%. The cell viability [21] was 111%, the cell viability [22] was 104% and the cell viability [1] was 107%. The cell viability [2] was 118%, the cell viability [3] was 117% and the cell viability [4] was 118%. The cell viability [5] was 105%, the cell viability [6] was 111% and the cell viability [7] was 127%. It also gave a cell viability [8] of 106%, a cell viability [9] of 105% and a cell viability [10] of 111%. The cell viability [11] was 98.8%.
